Assay results from the supplement of paper PMC10307832.

What was measured:
Assay in all cases: relative viability (nuclei count vs DMSO), 5 days (fraction); higher = more cells survive
ABC-1 = system: ABC-1
Method in brief: (§1)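 For relative viability, nuclei counts in treated wells were divided by those in vehicle wells. Lung cancer cell lines had been pin-tool dosed in 1536-well plates the day after seeding and cultured for 5 days, then fixed and stained in one step (final 0.05% Triton X-100, 1% formaldehyde, 1 ug/ml Hoechst) and imaged at 4×. Doses were one drug alone or a fixed anchor-drug dose plus five library-drug doses (not always all listed) in √10 steps, and values are duplicate-plate medians.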

Calu-6 = system: Calu-6
Method in brief: as §1

NCI-H1703 = system: NCI-H1703
Method in brief: as §1

NCI-H1651 = system: NCI-H1651
Method in brief: as §1

ChaGo-K-1 = system: ChaGo-K-1
Method in brief: as §1

EBC-1 = system: EBC-1
Method in brief: as §1

NCI-H1299 = system: NCI-H1299
Method in brief: as §1

COR-L23 = system: COR-L23
Method in brief: as §1

IA-LM = system: IA-LM
Method in brief: as §1

A549 = system: A549
Method in brief: as §1

NCI-H1437 = system: NCI-H1437
Method in brief: as §1

SK-MES-1 = system: SK-MES-1
Method in brief: as §1

SW 1573 = system: SW 1573
Method in brief: as §1

## CC(=O)O[C@@]12CO[C@@H]1C[C@H](O)[C@@]1(C)C(=O)[C@H](O)C3=C(C)[C@@H](OC(=O)[C@H](O)[C@@H](NC(=O)OC(C)(C)C)c4ccccc4)C[C@@](O)([C@@H](OC(=O)c4ccccc4)[C@H]21)C3(C)C [Docetaxel] + CS(=O)(=O)N1CCN(Cc2cc3nc(-c4cccc5[nH]ncc45)nc(N4CCOCC4)c3s2)CC1 [Pictilisib] (partner 1 µM)
ABC-1; first compound 0.0002 µM
  relative viability: 0.772
ABC-1; first compound 0.000632 µM
  relative viability: 0.685
ABC-1; first compound 0.002 µM
  relative viability: 0.442
ABC-1; first compound 0.006325 µM
  relative viability: 0.304
ABC-1; first compound 0.02 µM
  relative viability: 0.253
Calu-6; first compound 0.0002 µM
  relative viability: 0.937
Calu-6; first compound 0.000632 µM
  relative viability: 0.754
Calu-6; first compound 0.006325 µM
  relative viability: 0.128
Calu-6; first compound 0.02 µM
  relative viability: 0.0823
NCI-H1703; first compound 0.0002 µM
  relative viability: 0.235
NCI-H1703; first compound 0.000632 µM
  relative viability: 0.26
NCI-H1703; first compound 0.002 µM
  relative viability: 0.2
NCI-H1703; first compound 0.006325 µM
  relative viability: 0.161
NCI-H1703; first compound 0.02 µM
  relative viability: 0.136
NCI-H1651; first compound 0.0002 µM
  relative viability: 0.477
NCI-H1651; first compound 0.000632 µM
  relative viability: 0.443
NCI-H1651; first compound 0.002 µM
  relative viability: 0.206
NCI-H1651; first compound 0.006325 µM
  relative viability: 0.095
NCI-H1651; first compound 0.02 µM
  relative viability: 0.0784
ChaGo-K-1; first compound 0.0002 µM
  relative viability: 0.771
ChaGo-K-1; first compound 0.000632 µM
  relative viability: 0.421
ChaGo-K-1; first compound 0.002 µM
  relative viability: 0.44
ChaGo-K-1; first compound 0.006325 µM
  relative viability: 0.354
ChaGo-K-1; first compound 0.02 µM
  relative viability: 0.201
EBC-1; first compound 0.0002 µM
  relative viability: 0.347
EBC-1; first compound 0.000632 µM
  relative viability: 0.267
EBC-1; first compound 0.002 µM
  relative viability: 0.189
EBC-1; first compound 0.006325 µM
  relative viability: 0.164
NCI-H1299; first compound 0.0002 µM
  relative viability: 0.761
NCI-H1299; first compound 0.000632 µM
  relative viability: 0.579
NCI-H1299; first compound 0.002 µM
  relative viability: 0.305
NCI-H1299; first compound 0.006325 µM
  relative viability: 0.14
NCI-H1299; first compound 0.02 µM
  relative viability: 0.109
COR-L23; first compound 0.0002 µM
  relative viability: 0.632
COR-L23; first compound 0.000632 µM
  relative viability: 0.649
COR-L23; first compound 0.002 µM
  relative viability: 0.42
COR-L23; first compound 0.006325 µM
  relative viability: 0.124
COR-L23; first compound 0.02 µM
  relative viability: 0.0817
IA-LM; first compound 0.0002 µM
  relative viability: 0.183
IA-LM; first compound 0.000632 µM
  relative viability: 0.11
IA-LM; first compound 0.002 µM
  relative viability: 0.0755
IA-LM; first compound 0.006325 µM
  relative viability: 0.0696
IA-LM; first compound 0.02 µM
  relative viability: 0.064
A549; first compound 0.0002 µM
  relative viability: 0.44
A549; first compound 0.000632 µM
  relative viability: 0.22
A549; first compound 0.002 µM
  relative viability: 0.0741
A549; first compound 0.006325 µM
  relative viability: 0.0602
A549; first compound 0.02 µM
  relative viability: 0.035
NCI-H1437; first compound 0.0002 µM
  relative viability: 0.453
NCI-H1437; first compound 0.000632 µM
  relative viability: 0.366
NCI-H1437; first compound 0.002 µM
  relative viability: 0.132
NCI-H1437; first compound 0.006325 µM
  relative viability: 0.117
NCI-H1437; first compound 0.02 µM
  relative viability: 0.0671
SK-MES-1; first compound 0.0002 µM
  relative viability: 0.303
SK-MES-1; first compound 0.000632 µM
  relative viability: 0.34
SK-MES-1; first compound 0.006325 µM
  relative viability: 0.206
SK-MES-1; first compound 0.02 µM
  relative viability: 0.119
SW 1573; first compound 0.0002 µM
  relative viability: 0.372
SW 1573; first compound 0.000632 µM
  relative viability: 0.314
SW 1573; first compound 0.002 µM
  relative viability: 0.196
SW 1573; first compound 0.006325 µM
  relative viability: 0.153
SW 1573; first compound 0.02 µM
  relative viability: 0.144

## Nc1ccn([C@@H]2O[C@H](CO)[C@@H](O)[C@@H]2O)c(=O)n1 [Cytarabine] + C[C@@H](Oc1cc(-c2cnn(C3CCNCC3)c2)cnc1N)c1c(Cl)ccc(F)c1Cl [Crizotinib] (partner 1 µM)
ABC-1; first compound 0.005 µM
  relative viability: 0.871
ABC-1; first compound 0.01581 µM
  relative viability: 0.821
ABC-1; first compound 0.05 µM
  relative viability: 0.925
ABC-1; first compound 0.1581 µM
  relative viability: 0.717
ABC-1; first compound 0.5 µM
  relative viability: 0.462
Calu-6; first compound 0.005 µM
  relative viability: 0.722
Calu-6; first compound 0.01581 µM
  relative viability: 0.706
Calu-6; first compound 0.05 µM
  relative viability: 0.623
Calu-6; first compound 0.1581 µM
  relative viability: 0.433
Calu-6; first compound 0.5 µM
  relative viability: 0.259
NCI-H1703; first compound 0.005 µM
  relative viability: 0.484
NCI-H1703; first compound 0.01581 µM
  relative viability: 0.375
NCI-H1703; first compound 0.05 µM
  relative viability: 0.299
NCI-H1703; first compound 0.1581 µM
  relative viability: 0.148
NCI-H1703; first compound 0.5 µM
  relative viability: 0.205
NCI-H1651; first compound 0.005 µM
  relative viability: 0.869
NCI-H1651; first compound 0.01581 µM
  relative viability: 0.904
NCI-H1651; first compound 0.05 µM
  relative viability: 0.834
NCI-H1651; first compound 0.1581 µM
  relative viability: 0.584
NCI-H1651; first compound 0.5 µM
  relative viability: 0.549
ChaGo-K-1; first compound 0.005 µM
  relative viability: 0.732
ChaGo-K-1; first compound 0.01581 µM
  relative viability: 0.717
ChaGo-K-1; first compound 0.05 µM
  relative viability: 0.521
ChaGo-K-1; first compound 0.1581 µM
  relative viability: 0.383
ChaGo-K-1; first compound 0.5 µM
  relative viability: 0.358
EBC-1; first compound 0.01581 µM
  relative viability: 0.171
EBC-1; first compound 0.05 µM
  relative viability: 0.178
EBC-1; first compound 0.1581 µM
  relative viability: 0.149
EBC-1; first compound 0.5 µM
  relative viability: 0.159
NCI-H1299; first compound 0.005 µM
  relative viability: 0.956
NCI-H1299; first compound 0.01581 µM
  relative viability: 0.99
NCI-H1299; first compound 0.05 µM
  relative viability: 1.03
NCI-H1299; first compound 0.1581 µM
  relative viability: 0.961
NCI-H1299; first compound 0.5 µM
  relative viability: 0.943
COR-L23; first compound 0.005 µM
  relative viability: 0.578
COR-L23; first compound 0.01581 µM
  relative viability: 0.631
COR-L23; first compound 0.05 µM
  relative viability: 0.405
COR-L23; first compound 0.1581 µM
  relative viability: 0.166
COR-L23; first compound 0.5 µM
  relative viability: 0.122
IA-LM; first compound 0.005 µM
  relative viability: 0.864
IA-LM; first compound 0.01581 µM
  relative viability: 0.62
IA-LM; first compound 0.05 µM
  relative viability: 0.729
IA-LM; first compound 0.1581 µM
  relative viability: 0.414
IA-LM; first compound 0.5 µM
  relative viability: 0.121
A549; first compound 0.005 µM
  relative viability: 0.541
A549; first compound 0.01581 µM
  relative viability: 0.53
A549; first compound 0.05 µM
  relative viability: 0.449
A549; first compound 0.1581 µM
  relative viability: 0.0819
A549; first compound 0.5 µM
  relative viability: 0.0747
NCI-H1437; first compound 0.005 µM
  relative viability: 0.576
NCI-H1437; first compound 0.01581 µM
  relative viability: 0.817
NCI-H1437; first compound 0.05 µM
  relative viability: 0.472
NCI-H1437; first compound 0.1581 µM
  relative viability: 0.258
NCI-H1437; first compound 0.5 µM
  relative viability: 0.156
SK-MES-1; first compound 0.005 µM
  relative viability: 0.706
SK-MES-1; first compound 0.01581 µM
  relative viability: 0.741
SK-MES-1; first compound 0.05 µM
  relative viability: 0.367
SK-MES-1; first compound 0.1581 µM
  relative viability: 0.274
SK-MES-1; first compound 0.5 µM
  relative viability: 0.219
SW 1573; first compound 0.005 µM
  relative viability: 0.83
SW 1573; first compound 0.01581 µM
  relative viability: 0.868
SW 1573; first compound 0.05 µM
  relative viability: 0.864
SW 1573; first compound 0.1581 µM
  relative viability: 0.412
SW 1573; first compound 0.5 µM
  relative viability: 0.179
